Reference: article PMC7026418, “The kinase polypharmacology landscape of clinical PARP inhibitors” (Scientific Reports, 2020)
Where two headings read alike, the source gives them in different places.

Tests used:
Test in all cases: biochemical
Set-up in all cases: DiscoveRx KINOMEscan active site-directed competition binding; percent of control kinase bound to immobilised ligand
[1] = target: EGFR(L747-E749del, A750P) (Homo sapiens, UniProt P00533, A750P/DEL747-749)
[2] = target: T1, MEK6 (Homo sapiens, UniProt P52564)
T1 construct: gene MAP2K6
T1 sequence (P52564 1-334): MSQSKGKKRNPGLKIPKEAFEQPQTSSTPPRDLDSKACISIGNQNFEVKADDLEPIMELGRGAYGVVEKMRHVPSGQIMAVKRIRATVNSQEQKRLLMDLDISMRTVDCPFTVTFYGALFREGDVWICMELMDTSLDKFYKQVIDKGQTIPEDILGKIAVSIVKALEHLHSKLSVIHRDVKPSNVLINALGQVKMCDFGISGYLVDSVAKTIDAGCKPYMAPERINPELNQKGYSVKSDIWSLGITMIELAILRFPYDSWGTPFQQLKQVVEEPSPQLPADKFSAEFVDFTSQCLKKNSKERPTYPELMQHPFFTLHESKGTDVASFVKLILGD

[3] = target: T2, PIP5K2C (Homo sapiens, UniProt Q8TBX8)
T2 construct: gene PIP4K2C
T2 sequence (Q8TBX8 1-421): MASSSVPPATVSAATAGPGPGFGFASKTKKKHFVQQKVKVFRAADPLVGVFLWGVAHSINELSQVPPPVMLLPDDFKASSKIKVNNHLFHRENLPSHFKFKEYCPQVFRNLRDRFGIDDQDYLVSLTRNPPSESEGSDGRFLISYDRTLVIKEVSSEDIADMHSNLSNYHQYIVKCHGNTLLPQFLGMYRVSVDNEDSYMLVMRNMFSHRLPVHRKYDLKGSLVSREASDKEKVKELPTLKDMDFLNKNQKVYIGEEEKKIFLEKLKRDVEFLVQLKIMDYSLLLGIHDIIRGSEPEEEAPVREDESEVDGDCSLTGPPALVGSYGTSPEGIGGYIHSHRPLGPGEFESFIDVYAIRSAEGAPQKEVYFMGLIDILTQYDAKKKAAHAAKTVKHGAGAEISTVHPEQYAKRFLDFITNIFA

[4] = target: T3, PKMYT1 (Homo sapiens, UniProt Q99640)
T3 sequence (Q99640 1-499): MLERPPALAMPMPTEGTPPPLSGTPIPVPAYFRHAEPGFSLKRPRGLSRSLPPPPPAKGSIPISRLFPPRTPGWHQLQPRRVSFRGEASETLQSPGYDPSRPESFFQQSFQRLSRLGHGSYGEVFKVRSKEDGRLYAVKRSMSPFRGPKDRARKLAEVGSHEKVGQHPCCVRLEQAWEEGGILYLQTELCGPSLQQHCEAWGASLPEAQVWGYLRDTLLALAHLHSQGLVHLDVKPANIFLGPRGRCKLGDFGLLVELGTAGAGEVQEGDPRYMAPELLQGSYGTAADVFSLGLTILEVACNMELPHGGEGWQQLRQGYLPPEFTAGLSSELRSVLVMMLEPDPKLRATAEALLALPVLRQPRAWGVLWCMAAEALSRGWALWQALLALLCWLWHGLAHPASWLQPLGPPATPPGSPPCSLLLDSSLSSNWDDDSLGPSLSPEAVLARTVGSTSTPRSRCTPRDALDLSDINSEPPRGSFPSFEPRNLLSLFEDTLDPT

[5] = target: T4, PRKD2 (Homo sapiens, UniProt Q9BZL6)
T4 sequence (Q9BZL6 1-878): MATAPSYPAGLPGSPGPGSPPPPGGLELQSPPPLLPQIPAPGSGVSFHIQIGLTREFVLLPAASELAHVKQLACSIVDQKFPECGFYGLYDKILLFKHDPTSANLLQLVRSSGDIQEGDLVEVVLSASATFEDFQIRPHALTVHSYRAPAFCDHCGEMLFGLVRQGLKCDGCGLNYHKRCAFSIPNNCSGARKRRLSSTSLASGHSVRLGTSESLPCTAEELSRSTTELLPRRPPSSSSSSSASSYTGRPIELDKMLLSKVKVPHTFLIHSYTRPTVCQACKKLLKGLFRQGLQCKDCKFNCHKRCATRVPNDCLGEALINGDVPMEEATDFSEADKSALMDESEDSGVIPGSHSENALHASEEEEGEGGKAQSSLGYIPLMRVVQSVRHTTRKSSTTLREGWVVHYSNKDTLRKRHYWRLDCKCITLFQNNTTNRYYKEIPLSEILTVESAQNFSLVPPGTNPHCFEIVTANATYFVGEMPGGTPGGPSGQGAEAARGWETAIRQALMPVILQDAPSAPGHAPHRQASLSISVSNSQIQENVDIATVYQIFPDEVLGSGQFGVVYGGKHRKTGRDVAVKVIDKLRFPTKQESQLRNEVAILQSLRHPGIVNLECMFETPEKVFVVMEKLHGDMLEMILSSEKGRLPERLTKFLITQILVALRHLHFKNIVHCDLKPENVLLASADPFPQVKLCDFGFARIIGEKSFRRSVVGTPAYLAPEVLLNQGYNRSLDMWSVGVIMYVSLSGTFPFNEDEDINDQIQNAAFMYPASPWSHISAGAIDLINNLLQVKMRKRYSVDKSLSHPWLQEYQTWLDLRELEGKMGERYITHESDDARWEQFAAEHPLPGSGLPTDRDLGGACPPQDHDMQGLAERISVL

[6] = target: STK39 (Homo sapiens, UniProt Q9UEW8)
[7] = target: T5, YSK1 (Homo sapiens, UniProt O00506)
T5 construct: gene STK25

[8] = read-out: Talazoparib (BMN 673) / %Ctrl @ 10000nM
[9] = read-out: Olaparib / %Ctrl @ 10000nM
[10] = read-out: Rucaparib / %Ctrl @ 10000nM, binding competition, % of control
[11] = read-out: Niraparib (MK-4827) / %Ctrl @ 10000nM

T5 sequence (O00506 whole entry): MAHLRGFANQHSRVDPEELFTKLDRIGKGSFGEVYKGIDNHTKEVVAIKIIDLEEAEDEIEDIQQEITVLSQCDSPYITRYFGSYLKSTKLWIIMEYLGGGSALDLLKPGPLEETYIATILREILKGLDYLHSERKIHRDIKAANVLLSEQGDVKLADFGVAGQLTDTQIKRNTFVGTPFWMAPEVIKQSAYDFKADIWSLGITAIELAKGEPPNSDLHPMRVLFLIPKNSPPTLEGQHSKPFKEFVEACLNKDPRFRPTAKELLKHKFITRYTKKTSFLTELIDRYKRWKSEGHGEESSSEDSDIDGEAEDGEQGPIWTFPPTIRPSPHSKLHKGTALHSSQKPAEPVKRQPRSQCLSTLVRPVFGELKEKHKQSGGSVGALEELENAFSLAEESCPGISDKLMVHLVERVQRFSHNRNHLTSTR
Chain of EGFR(L747-E749del, A750P) (P00533 with tags, fused parts or gaps DEL747-749/A750P): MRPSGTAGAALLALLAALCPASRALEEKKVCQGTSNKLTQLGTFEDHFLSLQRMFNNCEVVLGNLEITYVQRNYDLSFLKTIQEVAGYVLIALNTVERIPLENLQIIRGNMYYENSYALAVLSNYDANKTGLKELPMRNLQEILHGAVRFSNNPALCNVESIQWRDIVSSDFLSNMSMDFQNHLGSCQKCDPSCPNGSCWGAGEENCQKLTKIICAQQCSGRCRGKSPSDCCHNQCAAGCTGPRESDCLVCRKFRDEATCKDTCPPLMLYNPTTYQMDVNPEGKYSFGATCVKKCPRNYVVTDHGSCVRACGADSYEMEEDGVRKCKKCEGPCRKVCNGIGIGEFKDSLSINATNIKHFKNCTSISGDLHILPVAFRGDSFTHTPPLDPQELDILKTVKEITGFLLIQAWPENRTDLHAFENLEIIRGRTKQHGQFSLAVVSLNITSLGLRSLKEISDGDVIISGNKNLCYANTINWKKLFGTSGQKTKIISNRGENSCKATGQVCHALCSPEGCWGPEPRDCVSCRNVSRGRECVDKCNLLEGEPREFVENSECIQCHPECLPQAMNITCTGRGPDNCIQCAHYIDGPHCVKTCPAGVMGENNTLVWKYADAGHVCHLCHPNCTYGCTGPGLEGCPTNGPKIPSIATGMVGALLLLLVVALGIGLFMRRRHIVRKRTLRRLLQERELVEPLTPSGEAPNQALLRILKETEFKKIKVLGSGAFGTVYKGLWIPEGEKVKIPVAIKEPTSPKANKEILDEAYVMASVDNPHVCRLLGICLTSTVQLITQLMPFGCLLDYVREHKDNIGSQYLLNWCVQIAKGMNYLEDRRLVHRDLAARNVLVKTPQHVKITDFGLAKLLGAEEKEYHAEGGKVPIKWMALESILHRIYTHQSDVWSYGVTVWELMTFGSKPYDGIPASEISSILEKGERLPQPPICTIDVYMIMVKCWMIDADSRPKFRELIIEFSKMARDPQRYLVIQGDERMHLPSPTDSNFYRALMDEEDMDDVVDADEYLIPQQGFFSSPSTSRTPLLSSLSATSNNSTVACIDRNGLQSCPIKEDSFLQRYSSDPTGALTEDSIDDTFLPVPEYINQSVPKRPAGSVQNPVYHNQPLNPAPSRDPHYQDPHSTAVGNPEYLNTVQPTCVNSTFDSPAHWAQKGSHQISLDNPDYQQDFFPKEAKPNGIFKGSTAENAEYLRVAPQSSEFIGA

SMILES: Cn1ncnc1[C@H]1c2n[nH]c(=O)c3cc(F)cc(c23)N[C@@H]1c1ccc(F)cc1 [Talazoparib]
- percent of control binding at 10 µM [1, 8]: 96%
- percent of control binding at 10 µM [2, 8]: 83%
- percent of control binding at 10 µM [3, 8]: 100%
- percent of control binding at 10 µM [4, 8]: 100%
- percent of control binding at 10 µM [5, 8]: 100%
- percent of control binding at 10 µM [6, 8]: 100%
- percent of control binding at 10 µM [7, 8]: 80%

SMILES: O=C(c1cc(Cc2n[nH]c(=O)c3ccccc23)ccc1F)N1CCN(C(=O)C2CC2)CC1 [Olaparib]
- percent of control binding at 10 µM [1, 9]: 82%
- percent of control binding at 10 µM [2, 9]: 86%
- percent of control binding at 10 µM [3, 9]: 98%
- percent of control binding at 10 µM [4, 9]: 100%
- percent of control binding at 10 µM [5, 9]: 95%
- percent of control binding at 10 µM [6, 9]: 92%
- percent of control binding at 10 µM [7, 9]: 97%

SMILES: CNCc1ccc(-c2[nH]c3cc(F)cc4c3c2CCNC4=O)cc1 [Rucaparib]
- percent of control binding at 10 µM [1, 10]: 98%
- percent of control binding at 10 µM [2, 10]: 81%
- percent of control binding at 10 µM [3, 10]: 83%
- percent of control binding at 10 µM [4, 10]: 100%
- percent of control binding at 10 µM [5, 10]: 77%
- percent of control binding at 10 µM [6, 10]: 73%
- percent of control binding at 10 µM [7, 10]: 87%

SMILES: NC(=O)c1cccc2cn(-c3ccc([C@@H]4CCCNC4)cc3)nc12 [Niraparib]
- percent of control binding at 10 µM [1, 11]: 65%
- percent of control binding at 10 µM [2, 11]: 95%
- percent of control binding at 10 µM [3, 11]: 78%
- percent of control binding at 10 µM [4, 11]: 93%
- percent of control binding at 10 µM [5, 11]: 87%
- percent of control binding at 10 µM [6, 11]: 70%
- percent of control binding at 10 µM [7, 11]: 99%
